Each structure is given as a SMILES string.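 48-hour exposure; five concentrations; linearly interpolated endpoints. GI50 is the concentration that inhibits growth by half.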 Activity calls are given as the source filed them. Rule as the data show it: active = GI50 up to about 1.1 µM and inactive = higher.

Some test systems named below: DMS-114; DMS-273; KM-20L2; SNB-78; HOP-18; RXF 631; DLD-1; LXFL 529; XF498.
Holding throughout (assay): DTP human tumour cell line panel, 48 h

Regarding `CNC(=O)OCc1nc(SSC(C)(C)C)n(C)c1COC(=O)NC`, the GI50 was 1.72 µM (inactive) with DMS-114; 5.97 µM (inactive) with DMS-273; 12.8 µM (inactive) in the assay on KM-20L2; 7.83 µM (inactive) in the assay with SNB-78; 5.18 µM (inactive) in the assay with HOP-18; 1.73 µM (inactive) with RXF 631. Besides, the GI50 in the assay on DLD-1 was 1.43 µM (inactive); in the assay with LXFL 529 it was 1.24 µM (inactive); with XF498 it was 2.32 µM (inactive).

With `CC(/C=C1\CCC(CN(C)C)C1=O)c1cccc(Br)c1` (configuration not stated), the GI50 in the assay on DMS-114 is 19.7 µM (inactive); in the assay on KM-20L2, 21.4 µM (inactive); with SNB-78, 16.4 µM (inactive); in the assay with HOP-18 it was 18.7 µM (inactive); in the assay with RXF 631, 7.91 µM (inactive); with DLD-1, 9.57 µM (inactive). Also, the GI50 is 5.62 µM (inactive) in the assay with LXFL 529 and 20.6 µM (inactive) in the assay on XF498.

`C/C(CC(=O)Nc1cccc(C)c1C)=N\NC(N)=S`: the GI50 in the assay on DMS-114 was 41.7 µM (inactive); in the assay with DMS-273, > 100 µM (inactive); with KM-20L2, > 100 µM (inactive); with SNB-78, > 100 µM (inactive); in the assay on HOP-18 it was > 100 µM (inactive); in the assay on RXF 631, 91.2 µM (inactive). Also, the GI50 with DLD-1, in the assay on LXFL 529 and with XF498 was > 100 µM (inactive) each time.

Take `CO[C@H]1C[C@](C)(O)Cc2cc3c(c(O)c21)C(=O)c1c(O)cc2c(c1C3=O)O[C@@H]1O[C@@]2(C)[C@H](O)[C@@H](N(C)C)[C@@H]1O`: the GI50 with DMS-114 is 0.456 µM (active); in the assay on DMS-273 it was 0.215 µM (active); in the assay on KM-20L2, 2.89 µM (inactive); in the assay on SNB-78, 3.87 µM (inactive); with HOP-18 it was 0.859 µM (active); in the assay on RXF 631 it was 0.902 µM (active). Besides, the GI50 is 2.81 µM (inactive) in the assay on DLD-1, 1.96 µM (inactive) in the assay with LXFL 529 and 0.147 µM (active) in the assay with XF498.

`CC1OC(n2cc(Cl)c(=O)[nH]c2=O)C=C(OC(=O)c2ccccc2)C1=O` (configuration not stated): the GI50 in the assay with DMS-114, in the assay with DMS-273, with KM-20L2, in the assay with SNB-78, in the assay with HOP-18 and in the assay on RXF 631 was > 100 µM (inactive) throughout. The GI50 with DLD-1 and with XF498 was > 100 µM (inactive) throughout.

With `COC(=O)c1cccc2cccc(C(=O)Nc3ccc(Cl)cc3)c12`, the GI50 with DMS-114 is 14.8 µM (inactive); in the assay with DMS-273 it was 0.729 µM (active); in the assay with KM-20L2, > 24.2 µM (inactive); in the assay with SNB-78, 56.1 µM (inactive); in the assay on HOP-18, > 100 µM (inactive); in the assay on RXF 631, > 86.1 µM (inactive). Moreover, the GI50 in the assay on DLD-1 is > 21.7 µM (inactive); in the assay with LXFL 529, 0.474 µM (active); with XF498, > 73.3 µM (inactive).

Consider `COc1ccc(C=O)c(N(C)C(=O)C(C)(C)C)c1`, for which the GI50 in the assay on DMS-114, in the assay on DMS-273, with KM-20L2, in the assay with SNB-78, in the assay on HOP-18 and with RXF 631 was > 100 µM (inactive) each time. Further, in the assay on XF498, the GI50 was 17.1 µM (inactive).

For `Cc1ccccc1NC(=O)C(=O)C(C#N)c1ccc(Cl)cc1` (configuration not stated), the GI50 in the assay with DMS-114 is 39.8 µM (inactive); in the assay with DMS-273, 33 µM (inactive); in the assay on KM-20L2, 33.6 µM (inactive); with SNB-78, > 100 µM (inactive); in the assay on HOP-18, 47.8 µM (inactive); with RXF 631, 34.7 µM (inactive). The GI50 in the assay on DLD-1 is 41.8 µM (inactive); with LXFL 529, 51.4 µM (inactive); in the assay on XF498, 33.8 µM (inactive).

In the case of `O=C(NC(c1ccccc1)C(O)C(=O)OCc1ccc2c(c1)C(=O)c1ccccc1C2=O)c1ccccc1` (configuration not stated), the GI50 with DMS-114 was 12.6 µM (inactive); in the assay with DMS-273 it was 18.6 µM (inactive); with KM-20L2 it was > 51.2 µM (inactive); with SNB-78, 56.6 µM (inactive); with HOP-18, 3.56 µM (inactive); in the assay with RXF 631, 30.5 µM (inactive). The values for the GI50 in the assay with DLD-1, in the assay on LXFL 529 and in the assay with XF498 were 21.2 µM (inactive), 44.7 µM (inactive) and 16 µM (inactive), respectively.

Source of the values: ChEMBL document CHEMBL1201862, “PubChem BioAssay data set” (2004).
